Measured values: patent publication US8968807B1, “Use of ethylene diamine metal complexes to deliver highly absorbable metals for animal nutrition” (Zinpro Corporation, priority 2013, dated 2015)

Key:
[1] = Sheep bolus test, manganese blood uptake; type: in vivo; conditions: 30 hour
From the text: Tests like in Example 19 and 21 were run with MnSO4 in comparison with Mn-EDA of Example 10. At all points Manganese blood uptake of the sheep was at lower levels than other tested ligands. This may be a characteristic of Mn itself.

[2] = sheep, bolus; versus FeSO4; most notably at 30 hours; FIG. 3
Procedure: In the following examples sheep were given a bolus injection like in Example 19 and then blood uptake was measured at various intervals.
The Fe-EDA (Example 9) and the Fe-EDA (Example 16) were tested for iron uptake in the blood in comparison with the bolus injection of FeSO4.

[3] = tested on: Cobb male broilers; experiment: Poultry trial with Cobb male broilers; type: in vivo; conditions: Cobb male broilers from 1 day old; 80 ppm supplemental Zn; Zn-EDA group = 40 ppm Zn from ZnSO4 + 40 ppm Zn from Zn-EDA
From the text: Animals were Cobb male broilers. The experiment was started with 1 day old animals. ZnSO4 was used as a comparative example using 80 ppm zinc from ZnSO4. Zn-EDA replaced 40 ppm of the zinc so there was 40 ppm Zn from ZnSO4 and 40 ppm Zn from Zn-EDA and compared to 80 ppm Zn from ZnSO4. Actual broiler integrator diets were used. They contain 500 ftu of phytase and an NSP enzyme (nonstarch polysaccride degrading enzyme). The plane of nutrition is targeted to be at AgriStat's 75th percentile. […] There were 12 replicates per treatment and 21 birds per replicate.

Molecule | Manganese blood uptake [1] | iron uptake in the blood [2] | other results
1,2 Diaminoethane dihydrochloride—manganese(II) chloride [Example 10] | 33 |  | 
Cl.Cl.NCCN.[Cl][Fe][Cl] [Example 9, 1,2 Diaminoethane dihydrochloride—iron(II) chloride] |  | better at every interval than inorganic iron sulfate | 
NCCN.[Cl][Fe][Cl] [Example 16, 1,2 Diaminoethane—iron(II) chloride] |  | better at every interval than inorganic iron sulfate | 
O=S(=O)([O-])[O-].[Mn+2] [MnSO4] | 24 |  | 
O=S(=O)([O-])[O-].[Zn+2] [ZnSulfate, ZnSO4] |  |  | Body Wt. [3]: 2.212 kg; Feed Conversion [3]: 1.531; Mortality [3]: 4.71%
